Tested on: peripheral blood mononuclear cells (PBMC)
Assay: qPCR (TaqMan) measurement of mRNA expression in PBMC treated with compound A
Format: cell-based, human
Conditions: 30 nM; untreated cells = 1; corrected by 18S rRNA

CCC(O)C(C)C1OC1CC(C)(O)/C=C/C=C(\C)C1OC(=O)CC(O)CCC(C)(O)C(OC(=O)N2CCN(C3CCCCCC3)CC2)/C=C/C1C (stereo not shown) [E7107, (8E,12E,14E)-7-((4-Cycloheptylpiperazin-1-yl)carbonyl)oxy-3,6,16,21-tetrahydroxy-6,10,12,16,20-pentamethyl-18,19-epoxytricosa-8,12,14-trien-11-olide]
ZCCHC8 mRNA expression level (qPCR): 0.13
